Laboratory results: publication PMC10147685, “Safety, tolerability, and pharmacokinetics of Aurora kinase B inhibitor AZD2811: a phase 1 dose-finding study in patients with advanced solid tumours” (British Journal of Cancer, 2023)
Like-named read-outs stand apart in the source and are kept apart here.

How the values were obtained:
[1] = Pharmacokinetics: AZD2811 whole blood concentrations and urine excretion; type: in vivo, human; conditions: for Cmax / AUC(0-t) / Tmax: human, whole blood; for Cmax: read-out: Geometric mean Cmax (CV%); for AUC(0-t): compartmental PK analysis, read-out: Geometric mean AUC(0–504h) (CV%); for Tmax: read-out: Median tmax (range)
Description: (§1) AEs were assessed throughout the treatment and follow-up periods. Patients were followed until all treatment-related toxicity resolved, or for at least 30 days post-study drug discontinuation. AEs were graded according to CTCAE v4.03. Venous blood samples (4 mL) for measurement of AZD2811 concentrations were collected at Cycle 1 Days 1–6, 8, 15, 16, and 22 and Cycle 2 Day 1 in Cohorts 1–6; Cycle 1 Days 1, 4, 8, 12, and 22 in Cohort 7; Cycle 1 Days 1, 4, 8, 12, and 15 and Cycle 2 Day 1 in Cohorts 8–12. Tumour imaging assessments using computed tomography or magnetic resonance imaging of the chest and abdomen/pelvis were performed at screening (≤28 days prior to initiation of treatment), and then every 2 cycles.
(§2) The safety analysis set comprised all patients who received at least one dose of AZD2811. The PK analysis set comprised all patients who received at least one dose of AZD2811 with at least one reportable concentration. […] There was no formal statistical analysis of safety and efficacy data. The numbers of patients experiencing each AE were summarised by Medical Dictionary for Regulatory Activities (MedDRA) version 22.1 system organ class, MedDRA preferred term, and CTCAE grade. The ORR and best overall response based on RECIST 1.1 were summarised. AZD2811 blood concentrations and derived PK parameters were summarised by dose regimen. Summary statistics were calculated for area under the curve (AUC), time of maximum concentration (tmax), and maximum concentration after a single dose (Cmax).
Compartmental PK analysis was used to derive AUC from time zero to the time of the last planned sampling time in the study (AUC0–504h). Cmax and tmax were derived using the standard non-compartmental approach. PK parameters of Cmax, tmax, and AUC0–504h are summarised by cohort in Supplementary Table 2, and geometric mean AZD2811 whole blood concentrations are presented by cohort in Fig. 3. Maximum AZD2811 whole blood concentrations were observed after the end of infusions (Days 1 and 4). […] There was evidence of a second and third phase, 96 and 264 h post-dose. […] Urine samples were only collected in the first four cohorts, and AZD2811 concentrations were below the limit of quantification in the majority (>80%). Consequently, only the total amount of unchanged AZD2811 excreted into urine over 0–72 h was calculated; the maximum amount excreted was 294.40 µg for a patient in Cohort 4 (51 mg AZD2811), which represented <1% of the dose.
Fig. 3 Geometric mean (±geoSD) AZD2811 whole blood concentrations. a For days 1 and 4 regimens and b for day 1 only regimens. In Cohorts 1–6, PK blood samples (4 mL per sample) for determination of AZD2811 blood concentrations were collected from all patients on Cycle 1 Day 1 pre-dose, and at 1, 2, 4, 6, 8, 24, and 48 h (±15 min for each time point) from the start of infusion, then on Cycle 1 Day 4 pre-dose, and at 1, 2, 4, 6, 8, and 24 h (day 5), 48 h (day 6), 96 h (day 8) from the start of infusion, and in the morning on days 15, 16, and 22. A Cycle 2 Day 1 pre-dose sample and a 2-h sample (end of infusion) were also obtained. In Cohorts 7–12, PK blood samples were collected from all patients on Cycle 1 Day 1 pre-dose, and at 1, 2, 4, 6, and 8 h from the start of infusion, and in the morning on Days 4, 8, 12, and 22. G-CSF granulocyte colony stimulating factor, PK pharmacokinetics, Q3W every 3 weeks, Q4W every 4 weeks.

advanced solid tumours = experiment: Preliminary antitumour activity (RECIST v1.1 best overall response); type: in vivo, human
Description: as §1
The primary objective was to evaluate the safety profile and determine the MTD/RP2D and schedule of AZD2811 by assessing the incidence of DLTs, AEs, and abnormal laboratory test results. Secondary objectives were evaluation of PK parameters and preliminary assessment of antitumour activity, including objective response rate (ORR [complete response + partial response (CR + PR)]) based on RECIST v1.1, and incidence of best overall response, stable disease (SD) and progressive disease (PD).
as §2

[2] = tested on: animal models of SCLC and diffuse large B-cell lymphoma (DLBCL); set-up: method as in PMID 26865565, PMID 30872381; conditions: at half the dose intensity of barasertib; cited from earlier work
LS- or ES-SCLC = conditions: cited from earlier work
[3] = intravenous, 15 mg, Cohort 1: 15 mg, Days 1 and 4, 28-day cycles, no G-CSF, N = 3
[4] = intravenous, 25 mg, Cohort 2: 25 mg, Days 1 and 4, 28-day cycles, no G-CSF, N = 3
[5] = intravenous, 38 mg, Cohort 3: 38 mg, Days 1 and 4, 28-day cycles, no G-CSF, N = 3
[6] = intravenous, 51 mg, Cohort 4: 51 mg, Days 1 and 4, 28-day cycles, no G-CSF, N = 3
[7] = intravenous, 100 mg, Cohort 5: 100 mg, Days 1 and 4, 28-day cycles, no G-CSF, N = 3
[8] = intravenous, 200 mg, Cohort 8: 200 mg, Day 1, 21-day cycles, optional G-CSF, N = 3
[9] = intravenous, 200 mg, Cohort 6: 200 mg, Days 1 and 4, 28-day cycles, no G-CSF, N = 9
[10] = intravenous, 200 mg, Cohort 7: 200 mg, Day 1, 28-day cycles, optional G-CSF, N = 4
[11] = intravenous, 400 mg, Cohort 9: 400 mg, Day 1, 21-day cycles, optional G-CSF, N = 7
[12] = intravenous, 500 mg, Cohort 12: 500 mg, Day 1, 21-day cycles, mandatory G-CSF, N = 6
[13] = intravenous, 600 mg, Cohort 11: 600 mg, Day 1, 21-day cycles, mandatory G-CSF, N = 3
[14] = over 0–72 h, a patient in Cohort 4 (51 mg AZD2811)

With `CCN(CCO)CCCOc1ccc2c(Nc3cc(CC(=O)Nc4cccc(F)c4)n[nH]3)ncnc2c1` [AZD2811, AZD1152 hydroxyquinazoline pyrazole anilide] the “Dose proportionality of PK” value ([1]; across the dose range evaluated (15–600 mg)) was “broadly dose-proportional”, the “Urine samples with AZD2811 concentrations below the limit of quantification” value ([1]; first four cohorts) was over 80% and the “Duration of AZD2811 blood exposure” value ([1]; following a 2-h infusion on Day 1) was “sustained for several days”. For the same compound, the “End of gradual monophasic decline in concentration post-infusion” value ([1]; following a 2-h infusion on Day 1, second and third phase 96 and 264 h post-dose) was “approximately 96 h”, the Cmax ([1]; in vivo, Cohort 8: 200 mg, Day 1, 21-day cycles, optional G-CSF, N = 3) was 41400 ng/mL and the AUC(0-t) [1, 3] was 362 µg·h/mL. It also gave a Cmax [1, 3] of 3900 ng/mL, a Tmax [1, 3] of 77 h and an AUC(0-t) [1, 4] of 658 µg·h/mL. For the same compound, the Cmax [1, 4] was 6700 ng/mL, the Tmax [1, 4] was 75 h and the AUC(0-t) [1, 5] was 917 µg·h/mL. The Cmax [1, 5] was 8900 ng/mL, the Tmax [1, 5] was 75 h and the AUC(0-t) [1, 6] was 1420 µg·h/mL. For the same compound, the Cmax [1, 6] was 14500 ng/mL, the Tmax [1, 6] was 78 h and the AUC(0-t) [1, 7] was 3670 µg·h/mL. The Cmax [1, 7] was 36800 ng/mL, the Tmax [1, 7] was 78 h and the AUC(0-t) ([1]; intravenous, 200 mg, Cohort 6: 200 mg, Days 1 and 4, 28-day cycles, no G-CSF, N = 8) was 6220 µg·h/mL. For the same compound, the AUC(0-t) ([1]; intravenous, 200 mg, Cohort 7: 200 mg, Day 1, 28-day cycles, optional G-CSF, N = 3) was 3020 µg·h/mL, the AUC(0-t) [1, 8] was 2750 µg·h/mL and the Cmax [1, 9] was 58300 ng/mL. It also gave a Tmax [1, 9] of 74 h, a Cmax [1, 10] of 43400 ng/mL and a Tmax [1, 10] of 2 h. The Tmax [1, 8] was 4 h, the AUC(0-t) [1, 11] was 5440 µg·h/mL and the Cmax [1, 11] was 87300 ng/mL. It also gave a Tmax [1, 11] of 3 h, an AUC(0-t) ([1]; intravenous, 500 mg, Cohort 12: 500 mg, Day 1, 21-day cycles, mandatory G-CSF, N = 5) of 7840 µg·h/mL and a Cmax [1, 12] of 93900 ng/mL. For the same compound, the Tmax [1, 12] was 6 h, the AUC(0-t) [1, 13] was 11600 µg·h/mL and the Cmax [1, 13] was 138000 ng/mL. The Tmax [1, 13] was 6 h, the “Maximum amount excreted into urine as part of the dose” value [1, 14] was < 1 % of the dose and the “Maximum amount of unchanged AZD2811 excreted into urine” value [1, 14] was 294.40 µg. For the same compound, the “Duration of SD” value (advanced solid tumours; 1 patient with cancer of pancreaticobiliary origin in Cohort 8) was 66 weeks, the “Treatment discontinuation due to progressive disease” value (advanced solid tumours; Cohorts 1–6) was 83.3% and the “Treatment discontinuation due to progressive disease” value (advanced solid tumours; Cohorts 7–12) was 81.5%. For the same compound, the “Best overall response: Not evaluable” value (advanced solid tumours; Total (N = 51)) was 5 (9.8) n (%), the “Best overall response: Not evaluable, Incomplete post-baseline assessments” value (advanced solid tumours; Total (N = 51)) was 4 (7.8) n (%) and the “Best overall response: Not evaluable, Stable disease <2 cycles” value (advanced solid tumours; Total (N = 51)) was 1 (2.0) n (%). The “Best overall response: Progressive disease” value (advanced solid tumours; Total (N = 51)) was 22 (43.1) n (%), the “Best overall response: Progressive disease, Death” value (advanced solid tumours; Total (N = 51)) was 3 (5.9) n (%) and the “Best overall response: Progressive disease, RECIST progression” value (advanced solid tumours; Total (N = 51)) was 19 (37.3) n (%). The “Best overall response: Stable disease ≥2 cycles” value (advanced solid tumours; Total (N = 51), two cycles = 56 days in 28-day cycles, 42 days in 21-day cycles) was 23 (45.1) n (%), the “Complete responses (CRs)” value (advanced solid tumours; all cohorts) was “no CRs” and the “Best overall response: partial response, patients” value (advanced solid tumours; all cohorts, n = 1 of 51) was 2.0%. The “Best overall response: Partial response” value (advanced solid tumours; evaluable-for-efficacy analysis set, Total (N = 51), all cohorts) was 1 (2.0) n (%), the “Longest duration of therapy” value (advanced solid tumours; patient with adenocarcinoma of the breast in Cohort 7, best overall response SD) was over 17 months and the “Reduction from baseline in sum of target lesion diameters” value (advanced solid tumours; patient with prostate cancer in Cohort 6 with a PR) was 80%. For the same compound, the “Efficacy and toxicity compared with barasertib” value [2] was “greater efficacy and less toxicity”, the “Patients with SD” value (LS- or ES-SCLC; 200 mg AZD2811 on Days 1 and 4 every 28 days, 5/15 patients) was 33.3% and the Objective responses (LS- or ES-SCLC; 200 mg AZD2811 on Days 1 and 4 every 28 days, 15 patients) was “no objective responses”. For the same compound, the “Septic shock due to pneumonia with grade 4 neutropenia, patients” value (LS- or ES-SCLC; without prophylactic G-CSF, 1 of 15 patients) was 6.7%, the “Febrile neutropenia, patients” value (LS- or ES-SCLC; without prophylactic G-CSF, 6 of 15 patients) was 40.0% and the “Target-related grade ≥3 neutropenia, patients” value (LS- or ES-SCLC; without prophylactic G-CSF, 9/15 patients) was 60.0%.
